Columns and labels:
[1] = test system: Influenza A N1H1; experiment: In vivo antiviral efficacy in Balb/c mice, lung virus titer by TCID50 assay
Procedure: Mice received a daily MB-dose of 5 mg/kg based on a daily drinking volume of ˜5-6 ml and a body weight of 25-35 g. The control group received drinking water with saccharin but without methylene blue.
Mice were euthanized and lungs were removed on day 3 post challenge with influenza H1N1 virus. These tissue samples were stored at <−60° C. until they were transferred into homogenization tubes containing 1 ml cell medium supplemented with antibiotics. The lungs were homogenized two times at 5000 rpm for twenty seconds with 10 seconds pause between the intervals with a tissue homogenizer. The infectious H1N1 virus titer in homogenized lung samples was determined by a TCID50 assay performed by titration on Madin-Darby Canine Kidney (MDCK) cells as described above.

[2] = in vivo; cited from earlier work

CN(C)c1ccc2nc3ccc(=[N+](C)C)cc-3sc2c1.[Cl-] [methylene blue, [7-(dimethylamino)phenothiazin-3-ylidene]-dimethylazanium; chloride]
viricidal efficacy, lung virus titer (TCID50 assay) ([1]; prophylactic application, 5 mg/kg daily in drinking water from day 0, challenge day 10, lungs 3 days later): significant viricidal efficacy | viricidal efficacy, lung virus titer (TCID50 assay) ([1]; therapeutic application, 5 mg/kg daily in drinking water from day 11, challenge day 10): significant viricidal efficacy

Cc1cc2nc3c(=O)[nH]c(=O)nc-3n(C[C@H](O)[C@H](O)[C@H](O)CO)c2cc1C [riboflavin, 7,8-dimethyl-10-[(2S,3S,4R)-2,3,4,5-tetrahydroxypentyl]benzo[g]pteridine-2,4-dione]
initial half-life [2]: 1.4 h | terminal half-life [2]: 14 h
